Key:
[1] = target: T1, HiBit-KRAS^G12C (Homo sapiens, UniProt P01116, G12C); assay: HiBit degradation assay in SW1573 HiBit-KRas^G12C cells; type: cell-based; set-up: expressed in transfected cells; host or cells: SW1573 (clone E6), modified pcDNA3.1 vector, TK promoter; conditions: 24 hours
Method in brief: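 SW1573 cells stably expressing N-terminally HiBit-tagged KRAS G12C, under the TK promoter, were treated 24 h at 37 °C with 10 μM to 20 nM compound in 0.1% or 0.5% DMSO. Residual HiBit luminescence normalised to DMSO and fitted with a 4-parameter model for DC50 and Dmax. Points with ≥50% viability loss (alamar blue) excluded.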

[2] = target: T1, HiBit-KRAS^G12C; assay: HiBit degradation assay in MiaPaCa-2 HiBit-KRas^G12C cells; type: cell-based; conditions: 24 hours; for Dmax: maximum degradation
Method in brief: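 MiaPaCa-2 cells with CRISPR N-terminal HiBit knock-in on one endogenous KRAS^G12C allele, treated 24 hours at 37° C with compound titrated 10 μM to 20 nM (0.1% or 0.5% DMSO). Lytic HiBit luminescence normalized to DMSO, 4-parameter fit giving DC50 and Dmax; points cytotoxic to […] cells by alamar blue excluded.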

[3] = SW1573, read-out: KRas^G12C-HiBit (SW1573; 0.1% DMSO) Dmax**, SW1573 HiBit-KRas^G12C, 0.1% DMSO
[4] = SW1573 HiBit-KRas^G12C, 0.1% DMSO, read-out: KRas^G12C-HIBit (SW1573; 0.1% DMSO) DC50*
[5] = SW1573, SW1573 HiBit-KRas^G12C, 0.5% DMSO, read-out: KRas^G12C-HiBiT (SW1573; 0.5% DMSO) Dmax**
[6] = read-out: KRas^G12C-HiBiT (SW1573; 0.5% DMSO) IC50***, SW1573 HiBit-KRas^G12C, 0.5% DMSO
[7] = MIA PaCa-2, MiaPaCa-2 HiBit-KRas^G12C cells, 0.5% DMSO, read-out: KRas^G12C-HiBiT (MiaPaCa; 0.5% DMSO) DMax
[8] = read-out: KRas^G12C-HiBiT (MiaPaCa; 0.5% DMSO) IC50, MiaPaCa-2 HiBit-KRas^G12C cells, 0.5% DMSO
[9] = read-out: KRas^G12C-HiBiT (MiaPaCa; 0.1% DMSO) IC50, MiaPaCa-2 HiBit-KRas^G12C cells, 0.1% DMSO
[10] = SW1573, SW1573 HiBit-KRas^G12C, 0.1% DMSO, read-out: KRas^G12C-HiBit (SW1573; 0.1% DMSO) Dmax**
[11] = MIA PaCa-2, MiaPaCa-2 HiBit-KRas^G12C cells, 0.1% DMSO, read-out: KRas^G12C-HiBiT (MiaPaCa; 0.1% DMSO) DMax

T1 sequence (P01116 1-186 isoform P01116-2 G12C limits assumed): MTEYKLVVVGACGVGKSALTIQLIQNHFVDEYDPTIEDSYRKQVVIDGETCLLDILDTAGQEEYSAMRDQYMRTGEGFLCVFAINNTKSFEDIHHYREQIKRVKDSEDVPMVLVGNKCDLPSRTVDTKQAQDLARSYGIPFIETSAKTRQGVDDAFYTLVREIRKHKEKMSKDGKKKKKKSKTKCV

C=CC(=O)N1CCN(c2nc(O[C@H](C)CN3CCC(C4CCN(CC(=O)N[C@H](C(=O)N5C[C@H](O)C[C@H]5C(=O)N[C@@H](C)c5ccc(-c6scnc6C)cc5)C(C)(C)C)CC4)CC3)nc3c(F)c(-c4cc(O)cc5ccccc45)c(Cl)cc23)CC1 [Compound 50, (2S,4R)-1-[(2S)-2-(2-{1′-[(2R)-2-{[6-chloro-8-fluoro-7-(3-hydroxynaphthalen-1-yl)-4-[4-(prop-2-enoyl)piperazin-1-yl]quinazolin-2-yl]oxy}propyl]-[4,4′-bipiperidin]-1-yl}acetamido)-3,3-dimethylbutanoyl]-4-hydroxy-N-[(1S)-1-[4-(4-methyl-1,3-thiazol-5-yl)phenyl]ethyl]pyrrolidine-2-carboxamide]
Dmax [1, 3]: 35 to 70% | DC50 [1, 4]: > 1000 nM | Dmax ([2]; MIA PaCa-2, read-out: KRas^G12C-HiBiT (MiaPaCa; 0.1% DMSO) DMax, MiaPaCa-2 HiBit-KRas^G12C cells, 0.1% DMSO): 35 to 70%

C=CC(=O)N1CCN(c2nc(OCCN3CCC(COCC(=O)N[C@H](C(=O)N4C[C@H](O)C[C@H]4C(=O)N[C@@H](C)c4ccc(-c5scnc5C)cc4)C(C)(C)C)CC3)nc3c(F)c(-c4c(C)ccc5[nH]ncc45)c(Cl)cc23)C[C@@H]1CC#N [Compound 128, (2S,4R)-1-[(2S)-2-[2-({1-[2-({6-chloro-4-[(3S)-3-(cyanomethyl)-4-(prop-2-enoyl)piperazin-1-yl]-8-fluoro-7-(5-methyl-1H-indazol-4-yl)quinazolin-2-yl}oxy)ethyl]piperidin-4-yl}methoxy)acetamido]-3,3-dimethylbutanoyl]-4-hydroxy-N-[(1S)-1-[4-(4-methyl-1,3-thiazol-5-yl)phenyl]ethyl]pyrrolidine-2-carboxamide]
Dmax [1, 5]: > 70% | DC50 [1, 6]: 100 to 1000 nM | Dmax [2, 7]: 35 to 70% | DC50 [2, 8]: 100 to 1000 nM

C=CC(=O)N1CCN(c2nc(O[C@H](C)CN3CCC(CCCOC4CN(CC(=O)N[C@H](C(=O)N5C[C@H](O)C[C@H]5C(=O)N[C@@H](C)c5ccc(-c6scnc6C)cc5)C(C)(C)C)C4)CC3)nc3c(F)c(-c4cc(O)cc5ccccc45)c(Cl)cc23)CC1 [Compound 48, (2S,4R)-1-[(2S)-2-{2-[3-(3-{1-[(2R)-2-{[6-chloro-8-fluoro-7-(3-hydroxynaphthalen-1-yl)-4-[4-(prop-2-enoyl)piperazin-1-yl]quinazolin-2-yl]oxy}propyl]piperidin-4-yl}propoxy)azetidin-1-yl]acetamido}-3,3-dimethylbutanoyl]-4-hydroxy-N-[(1S)-1-[4-(4-methyl-1,3-thiazol-5-yl)phenyl]ethyl]pyrrolidine-2-carboxamide]
Dmax [1, 3]: < 35% | DC50 [1, 4]: 100 to 1000 nM | DC50 [2, 9]: > 1000 nM

C=C(F)C(=O)N1CCN(c2nc(OCCN3CCC(COc4cc([C@H](C(=O)N5C[C@H](O)C[C@H]5C(=O)N[C@@H](C)c5ccc(-c6scnc6C)cc5)C(C)C)on4)CC3)nc3c(F)c(-c4cc(O)cc5ccccc45)c(Cl)cc23)C[C@@H]1CC#N (atropisomer, axis not shown) [Compound 167, (2S,4R)-1-[(2R)-2-[3-({1-[2-({6-chloro-4-[(3S)-3-(cyanomethyl)-4-(2-fluoroprop-2-enoyl)piperazin-1-yl]-8-fluoro-7-(3-hydroxynaphthalen-1-yl)quinazolin-2-yl}oxy)ethyl]piperidin-4-yl}methoxy)-1,2-oxazol-5-yl]-3-methylbutanoyl]-4-hydroxy-N-[(1S)-1-[4-(4-methyl-1,3-thiazol-5-yl)phenyl]ethyl]pyrrolidine-2-carboxamide]
KRas^G12C-HiBiT (SW1573; 0.5% DMSO) Dmax** ([1]; SW1573 HiBit-KRas^G12C, 0.5% DMSO): A (A ≥ 70) | DC50 [1, 6]: < 100 nM | Dmax [2, 7]: > 70% | DC50 [2, 8]: < 100 nM

C=CC(=O)N1CCN(c2nc(OCCN3CCC(COCC(=O)N[C@H](C(=O)N4C[C@H](O)C[C@H]4C(=O)N[C@@H](C)c4ccc(-c5scnc5C)cc4)C(C)(C)C)CC3)nc3c(F)c(-c4nc(NC)cc(C)c4C(F)(F)F)c(Cl)cc23)C[C@@H]1CC#N [Compound 98, (2S,4R)-1-[(2S)-2-[2-({1-[2-({6-chloro-4-[(3S)-3-(cyanomethyl)-4-(prop-2-enoyl)piperazin-1-yl]-8-fluoro-7-[4-methyl-6-(methylamino)-3-(trifluoromethyl)pyridin-2-yl]quinazolin-2-yl}oxy)ethyl]piperidin-4-yl}methoxy)acetamido]-3,3-dimethylbutanoyl]-4-hydroxy-N-[(1S)-1-[4-(4-methyl-1,3-thiazol-5-yl)phenyl]ethyl]pyrrolidine-2-carboxamide]
Dmax [1, 5]: > 70% | DC50 [1, 6]: 100 to 1000 nM | Dmax [2, 7]: > 70% | DC50 [2, 8]: 100 to 1000 nM

C=CC(=O)N1CCN(c2nc(O[C@H](C)CN3CCC(OCCOc4cc(-c5scnc5C)ccc4CNC(=O)[C@@H]4C[C@@H](O)CN4C(=O)[C@H](c4cc(C)no4)C(C)C)CC3)nc3c(F)c(-c4cc(O)cc5ccccc45)c(Cl)cc23)CC1 [Compound 77, (2S,4R)-N-({2-[2-({1-[(2R)-2-{[6-chloro-8-fluoro-7-(3-hydroxynaphthalen-1-yl)-4-[4-(prop-2-enoyl)piperazin-1-yl]quinazolin-2-yl]oxy}propyl]piperidin-4-yl}oxy)ethoxy]-4-(4-methyl-1,3-thiazol-5-yl)phenyl}methyl)-4-hydroxy-1-[(2S)-3-methyl-2-(3-methyl-1,2-oxazol-5-yl)butanoyl]pyrrolidine-2-carboxamide]
Dmax [1, 10]: < 35% | DC50 [1, 4]: 100 to 1000 nM | Dmax [2, 11]: < 35%

C=CC(=O)N1CCN(c2nc(O[C@H](C)CN3CCC(CCOCC(=O)N[C@H](C(=O)N4C[C@H](O)C[C@H]4C(=O)N[C@@H](C)c4ccc(-c5scnc5C)cc4)C(C)(C)C)CC3)nc3c(F)c(-c4cc(O)cc5ccccc45)c(Cl)cc23)CC1 [Compound 68, (2S,4R)-1-[(2S)-2-[2-(2-{1-[(2R)-2-{[6-chloro-8-fluoro-7-(3-hydroxynaphthalen-1-yl)-4-[4-(prop-2-enoyl)piperazin-1-yl]quinazolin-2-yl]oxy}propyl]piperidin-4-yl}ethoxy)acetamido]-3,3-dimethylbutanoyl]-4-hydroxy-N-[(1S)-1-[4-(4-methyl-1,3-thiazol-5-yl)phenyl]ethyl]pyrrolidine-2-carboxamide]
Dmax [1, 10]: 35 to 70% | Dmax [1, 5]: 35 to 70% | DC50 [1, 4]: 100 to 1000 nM | Dmax [2, 11]: < 35% | Dmax [2, 7]: 35 to 70%

C=CC(=O)N1CCN(c2nc(OCCN3CCN(CCOCC(=O)N[C@H](C(=O)N4C[C@H](O)C[C@H]4C(=O)N[C@@H](C)c4ccc(-c5scnc5C)cc4)C(C)(C)C)CC3)nc3c(F)c(-c4cc(O)cc5ccccc45)c(Cl)cc23)CC1 [Compound 51, (2S,4R)-1-[(2S)-2-(2-{2-[4-(2-{[6-chloro-8-fluoro-7-(3-hydroxynaphthalen-1-yl)-4-[4-(prop-2-enoyl)piperazin-1-yl]quinazolin-2-yl]oxy}ethyl)piperazin-1-yl]ethoxy}acetamido)-3,3-dimethylbutanoyl]-4-hydroxy-N-[(1S)-1-[4-(4-methyl-1,3-thiazol-5-yl)phenyl]ethyl]pyrrolidine-2-carboxamide]
Dmax [1, 10]: < 35% | DC50 [1, 4]: > 1000 nM | Dmax [2, 11]: < 35% | DC50 [2, 9]: 100 to 1000 nM

Reference: US20220370416A1, “COMPOUNDS AND METHODS FOR TARGETED DEGRADATION OF KRAS” (Arvinas Operations, Inc., priority 2020, published 2022)
